From ChEMBL document CHEMBL3390839, “Triazolopyrimidinones as -secretase modulators: structureactivity relationship, modulator profile, and in vivo profiling” (Medchemcomm, 2013)
Values after ≈ are worked out from the molar mass of the structure shown. Active and inactive are the calls of the source. No cut-off for these calls is given here.

Tests used:
Gamma-secretase = assay: Inhibition of human gamma-secretase in HEK-APPswe cells assessed as amyloid beta42 production by electrochemiluminescence assay; type: cell-based
[1] = Solubility of the compound; type: physicochemical
[2] = molecular target: Voltage-gated inwardly rectifying potassium channel KCNH2 (Homo sapiens, UniProt Q12809); assay: Inhibition of human ERG
Liver microsome = assay: Intrinsic clearance in human liver microsomes measured pre ug of protein; type: ADME
[3] = Inhibition of gamma-secretase in mouse primary cortical neurons cells assessed as amyloid beta42 production after 5 days by ELISA; type: cell-based, Cerebral cortex neuron; settings: for IC50: Mus musculus, Cerebral cortex neuron, 120 h; for pIC50: cerebral cortex neuron
[4] = Permeability across apical to basolateral side in human Caco2 cells; type: ADME, cell-based; settings: for Papp A→B: Caco-2, read-out: permeability; for permeability: Caco-2
[5] = Ratio of drug level in brain to plasma in C57BL/6 mouse; type: ADME, organism-based; settings: brain and plasma, read-out: BPR
[6] = Permeability across basolateral to apical side in human Caco2 cells; type: ADME, cell-based; settings: for Papp B→A: Caco-2, read-out: permeability; for permeability: Caco-2
[7] = molecular target: T1, Gamma-secretase (Homo sapiens) (UniProt Q96BI3+Q9NZ42+Q8WW43+P49768+Q92542+P49810); assay: Inhibition of human gamma-secretase in HEK-APPswe cells assessed as amyloid beta40 production at 10 nM by electrochemiluminescence assay; type: cell-based
[8] = molecular target: T1, Gamma-secretase (Homo sapiens); assay: Inhibition of human gamma-secretase in HEK-APPswe cells assessed as amyloid beta37 production at 10 nM by electrochemiluminescence assay; type: cell-based
[9] = molecular target: T1, Gamma-secretase (Homo sapiens); assay: Inhibition of human gamma-secretase in HEK-APPswe cells assessed as amyloid beta39 production at 10 nM by electrochemiluminescence assay; type: cell-based
[10] = molecular target: T1, Gamma-secretase (Homo sapiens); assay: Inhibition of human gamma-secretase in HEK-APPswe cells assessed as amyloid beta38 production at 10 nM by electrochemiluminescence assay; type: cell-based
[11] = molecular target: T1, Gamma-secretase (Homo sapiens); assay: Inhibition of human gamma-secretase in HEK-APPswe cells assessed as notch processing at 5 uM by electrochemiluminescence assay; type: cell-based
[12] = molecular target: T1, Gamma-secretase (Homo sapiens); assay: Inhibition of human gamma-secretase in HEK-APPswe cells assessed as amyloid beta42 production at 10 nM by electrochemiluminescence assay; type: cell-based
[13] = molecular target: T1, Gamma-secretase (Homo sapiens); assay: Inhibition of human gamma-secretase in HEK-APPswe cells assessed as notch processing at 8 uM by electrochemiluminescence assay; type: cell-based
[14] = Half life in C57BL/6 mouse at 3 umol/kg, iv; type: ADME, organism-based; settings: in vivo
Mus musculus [15] = assay: Dose normalized AUC in C57BL/6 mouse at 3 umol/kg, iv; type: ADME, organism-based; settings: in vivo
[16] = Cmax in C57BL/6 mouse at 10 umol/kg, po; type: ADME, organism-based; set-up: dose 10 umol/kg, route oral; settings: in vivo
Mus musculus [17] = assay: Dose normalized AUC in C57BL/6 mouse at 10 umol/kg, po; type: ADME, organism-based; settings: in vivo
[18] = Clearance in C57BL/6 mouse at 3 umol/kg, iv; type: ADME, organism-based; settings: in vivo
[19] = Half life in C57BL/6 mouse at 10 umol/kg, po; type: ADME, organism-based; settings: in vivo
[20] = Volume of distribution at steady state in C57BL/6 mouse at 3 umol/kg, iv; type: ADME, organism-based; settings: in vivo, read-out: Vdss
[21] = Tmax in C57BL/6 mouse at 10 umol/kg, po; type: ADME, organism-based; settings: in vivo
[22] = Oral bioavailability in C57BL/6 mouse at 10 umol/kg; type: ADME, organism-based; settings: in vivo

Voltage-gated inwardly rectifying potassium channel KCNH2, sequence (Q12809 whole entry): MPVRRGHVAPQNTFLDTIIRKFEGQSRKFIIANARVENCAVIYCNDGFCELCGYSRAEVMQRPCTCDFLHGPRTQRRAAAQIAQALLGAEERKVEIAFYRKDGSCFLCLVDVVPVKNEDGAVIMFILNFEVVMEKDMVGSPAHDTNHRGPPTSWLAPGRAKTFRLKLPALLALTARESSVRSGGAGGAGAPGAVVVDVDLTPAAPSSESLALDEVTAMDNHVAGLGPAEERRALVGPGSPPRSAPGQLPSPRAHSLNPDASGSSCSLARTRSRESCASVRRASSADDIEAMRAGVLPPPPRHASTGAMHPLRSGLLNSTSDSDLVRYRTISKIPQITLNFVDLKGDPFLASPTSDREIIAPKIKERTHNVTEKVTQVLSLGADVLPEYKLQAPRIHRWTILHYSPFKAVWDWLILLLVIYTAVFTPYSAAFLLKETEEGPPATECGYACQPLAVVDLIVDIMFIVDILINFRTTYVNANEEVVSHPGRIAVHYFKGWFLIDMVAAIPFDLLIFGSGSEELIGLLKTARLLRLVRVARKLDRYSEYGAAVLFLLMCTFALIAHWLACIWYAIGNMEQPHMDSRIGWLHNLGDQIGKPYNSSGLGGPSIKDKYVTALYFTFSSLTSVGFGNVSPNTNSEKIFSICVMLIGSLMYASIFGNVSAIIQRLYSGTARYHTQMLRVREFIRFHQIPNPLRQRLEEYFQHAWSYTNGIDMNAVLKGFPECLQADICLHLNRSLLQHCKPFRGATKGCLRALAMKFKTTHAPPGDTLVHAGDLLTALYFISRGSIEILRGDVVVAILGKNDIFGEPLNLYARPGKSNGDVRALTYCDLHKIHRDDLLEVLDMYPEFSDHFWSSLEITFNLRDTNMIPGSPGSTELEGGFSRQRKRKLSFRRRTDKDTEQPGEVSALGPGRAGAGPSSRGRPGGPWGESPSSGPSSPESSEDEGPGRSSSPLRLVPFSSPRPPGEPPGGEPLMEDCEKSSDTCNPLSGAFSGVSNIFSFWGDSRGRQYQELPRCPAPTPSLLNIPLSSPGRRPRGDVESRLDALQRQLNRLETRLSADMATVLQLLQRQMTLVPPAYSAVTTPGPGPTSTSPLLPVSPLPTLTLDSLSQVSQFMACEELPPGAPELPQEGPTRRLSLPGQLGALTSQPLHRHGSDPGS

| pIC50 (Gamma-secretase) | solubility ([1]; read-out: solubility) [µM] | CLH (Liver microsome) [µL/min] | IC50 [3] [nM] | Structure (SMILES) | IC50 [2] [nM] | also measured |
| --- | --- | --- | --- | --- | --- | --- |
|  | < 1 | 66 |  | COc1cc(Nc2nc3n(n2)CCC(=O)N3Cc2ccccc2C)ccc1-c1ccc(C)nn1 | 33000 |  |
| 7.4 | 17 (≈ 6.69 µg/mL) | 105 | 79.4 | COc1cc(Nc2nc3n(n2)CCCN3CCC2CC2)ccc1-n1cnc(C)c1 | 6200 |  |
| 8 | < 1 | 109 | 39.8 | COc1cc(Nc2nc3n(n2)CCC(=O)N3Cc2ccccc2C)ccc1-c1cnnc(C)c1 | 33000 | Papp A→B [4]: 14 ×10⁻⁶ cm/s; Kp [5]: 0.07; Papp B→A [6]: 6 ×10⁻⁶ cm/s |
| 7 | 8 (≈ 3.44 µg/mL) | 16 | 794 | COc1cc(Nc2nc3n(n2)CCC(=O)N3Cc2ccccc2)ccc1-n1cnc(C)n1 | 17000 |  |
| 7.8 | 110 (≈ 47.5 µg/mL) | 37 | 79.4 | COc1cc(Nc2nc3n(n2)CCC(O)N3Cc2ccccc2)ccc1-n1cnc(C)c1 (centres undefined) |  | permeability [4]: 12 ×10⁻⁶ cm/s; Kp [5]: 0.01; permeability [6]: 34 ×10⁻⁶ cm/s |
| 7.4 | < 1 | 22 |  | COc1cc(Nc2nc3n(n2)CCC(=O)N3Cc2ccccc2Cl)ccc1-n1cnc(C)n1 | 33000 |  |
| 7.7 | 49 (≈ 20.4 µg/mL) | 82 | 100 | COc1cc(Nc2nc3n(n2)CCCN3Cc2ccccc2)ccc1-n1cnc(C)c1 | 5000 |  |
|  | 160 (≈ 71.3 µg/mL) | 17 | 126 | COc1cc(Nc2nc3n(n2)CC(C)(O)CN3Cc2ccccc2)ccc1-n1cnc(C)c1 (centres undefined) | 23000 |  |
|  |  | 37 |  | COc1cc(Nc2nc3n(n2)C(C2CC2)CCN3CC(C)(C)O)ccc1-n1cnc(C)c1 (stereo in doubt; 42A) [listing 2 of 2 here] |  | half-life [14]: 54 min; AUC/dose (Mus musculus [15]): 0.67 kg·h/L; Cmax [16]: 3.8 µM; AUC/dose (Mus musculus [17]): 0.61 kg·h/L; solubility [1]: 63 µM (≈ 27.6 µg/mL); clearance [18]: 25 mL/min/kg; half-life [19]: 60 min; pIC50 [3]: 7.5; Vd [20]: 1.4 L/kg; Tmax [21]: 30 min; bioavailability [22]: 91% |
| 7.4 | 2 (≈ 0.831 µg/mL) | 36 | 251 | COc1cc(Nc2nc3n(n2)CCC(=O)N3c2ccccc2)ccc1-n1cnc(C)c1 | 33000 |  |
| 7.4 |  |  |  | COc1cc(Nc2nc3n(n2)CCCC3c2ccc(F)cc2)ccc1-n1cnc(C)n1 (stereo in doubt; 14A) |  | pIC50 [3]: 7 |
| 7.7 | < 1 | 70 | 20 | COc1cc(Nc2nc3n(n2)C(C)CC(=O)N3Cc2cc(F)ccc2F)ccc1-n1cnc(C)c1 (centres undefined) |  |  |
| 8 | < 1 | 114 | 39.8 | COc1cc(Nc2nc3n(n2)CCC(=O)N3Cc2ccccc2C)ccc1-n1cnc(C)c1 | 13000 |  |
| 7.2 | < 1 | 94 |  | COc1cc(Nc2nc3n(n2)CCC(=O)N3Cc2ccccc2C)ccc1-c1cnc(C)nc1 | 11000 |  |
| 5.9 |  |  |  | Cc1nnc(-c2ccc(Nc3nc4n(n3)CCCC4c3ccc(F)cc3)cc2)o1 (centres undefined) |  |  |
| 6.8 |  |  |  | COc1cc(Nc2nc3n(n2)CCCC3c2ccc(F)cc2)ccc1-c1nc(C)no1 (centres undefined) |  |  |

Continued, molecule first:

| Structure (SMILES) | pIC50 (Gamma-secretase) | solubility ([1]; read-out: solubility) [µM] | CLH (Liver microsome) [µL/min] | IC50 [3] [nM] | IC50 [2] [nM] | also measured |
| --- | --- | --- | --- | --- | --- | --- |
| COc1cc(Nc2nc3n(n2)CCC(=O)N3Cc2ccccc2C)ccc1-c1cc(C)cnn1 | 5 | 170 (≈ 77.4 µg/mL) | 27 |  | 33000 |  |
| COc1cc(Nc2nc3n(n2)CCC(=O)N3Cc2ccccc2)ccc1-n1cnc(C)c1 | 7.9 | < 1 | 30 | 79.4 | 5700 | Papp A→B [4]: 36 ×10⁻⁶ cm/s; Kp [5]: 0.24; Papp B→A [6]: 12 ×10⁻⁶ cm/s |
| COc1cc(Nc2nc3n(n2)CC(C)C(=O)N3Cc2ccccc2)ccc1-n1cnc(C)c1 (centres undefined) |  | 2 (≈ 0.887 µg/mL) | 84 | 50.1 | 5600 |  |
| COc1cc(Nc2nc3n(n2)C(C2CC2)CCN3CC(C)(C)O)ccc1-n1cnc(C)c1 (stereo in doubt; 42A) [listing 1 of 2 here] |  |  |  |  |  | inhibition [7]: Active; inhibition [8]: Active; inhibition [9]: Active; inhibition [10]: Active; Activity [11]: inactive; inhibition [12]: Active |
| COc1cc(Nc2nc3n(n2)CCC(=O)N3Cc2ccccc2C)ccc1-c1noc(C)n1 | 4.8 | 50 (≈ 22.3 µg/mL) | 39 |  | 33000 | Papp A→B [4]: 38 ×10⁻⁶ cm/s; Kp [5]: 0.81; Papp B→A [6]: 12 ×10⁻⁶ cm/s |
| COc1cc(Nc2nc3n(n2)C(C)CCN3CCC(C)(C)O)ccc1-n1cnc(C)c1 (centres undefined) |  | 380 (≈ 162 µg/mL) | 47 | 158 | 32000 |  |
| COc1cc(Nc2nc3n(n2)C2(CC2)CC(=O)N3Cc2ccc(F)cc2)ccc1-n1cnc(C)c1 | 7.9 | < 1 | 29 | 25.1 |  |  |
| COc1cc(Nc2nc3n(n2)C(C)CC(=O)N3Cc2ccccc2)ccc1-n1cnc(C)c1 (stereo in doubt; 19A) | 7.7 |  | 73 |  |  | solubility [1]: 1 µM (≈ 0.444 µg/mL); pIC50 [3]: 6.8 |
| COc1cc(Nc2nc3n(n2)CC(O)CN3Cc2ccccc2)ccc1-n1cnc(C)c1 (centres undefined) |  | 290 (≈ 125 µg/mL) | 19 | 100 | 28000 |  |
| COc1cc(Nc2nc3n(n2)C(C)CC(=O)N3CC2CC(F)(F)C2)ccc1-n1cnc(C)c1 (centres undefined) |  | 4 (≈ 1.83 µg/mL) | 101 | 50.1 | 4400 | Papp A→B [4]: 50 ×10⁻⁶ cm/s; Kp [5]: 0.08; Papp B→A [6]: 19 ×10⁻⁶ cm/s |
| COc1cc(Nc2nc3n(n2)CCCC3c2ccccc2)ccc1-n1cnc(C)c1 (centres undefined) | 7.6 |  |  | 50.1 |  | Papp A→B [4]: 36 ×10⁻⁶ cm/s; Kp [5]: 0.12; Papp B→A [6]: 13 ×10⁻⁶ cm/s |
| COc1nc(Nc2nc3n(n2)CCCC3c2ccc(F)cc2)ccc1-n1cnc(C)c1 (centres undefined) | 7.2 |  |  |  |  |  |
| COc1cc(Nc2nc3n(n2)C(C)CC(=O)N3Cc2ccccc2)ccc1-n1cnc(C)c1 (stereo in doubt; 19B) |  |  |  |  |  | inhibition [7]: inactive; Activity [13]: inactive; inhibition [8]: inactive; inhibition [9]: inactive; inhibition [10]: inactive; inhibition [12]: Active |
| COc1cc(Nc2nc3n(n2)CCCC3c2ccc(F)cc2)ccc1-c1cnnc(C)c1 (centres undefined) | 7.7 |  |  | 100 |  |  |
| COc1cc(Nc2nc3n(n2)C(C2CC2)CCN3CCC(C)(C)O)ccc1-n1cnc(C)c1 (centres undefined) |  | 69 (≈ 31.2 µg/mL) | 26 | 100 | 16000 |  |
| COc1cc(Nc2nc3n(n2)C(C2CC2)CCN3CC(C)(C)O)ccc1-n1cnc(C)c1 (stereo in doubt; 42B) |  | 42 (≈ 18.4 µg/mL) | 21 |  | 33000 | pIC50 [3]: 6.9 |
| COc1cc(Nc2nc3n(n2)C(C)(C)CC(=O)N3Cc2ccc(F)cc2)ccc1-n1cnc(C)c1 | 7.9 | 2 (≈ 0.951 µg/mL) | 50 | 31.6 | 5600 | Kp [5]: 0.23 |
| COc1cc(Nc2nc3n(n2)CCCC3c2ccc(F)cc2)ccc1-n1cnc(C)n1 (stereo in doubt; 14B) | 7 |  |  |  |  | pIC50 [3]: 6.5 |
| COc1cc(Nc2nc3n(n2)CCC(=O)N3Cc2ccccc2C(F)(F)F)ccc1-n1cnc(C)n1 | 7.3 |  | 19 |  | 33000 | permeability [4]: 45 ×10⁻⁶ cm/s; Kp [5]: 0.68; permeability [6]: 18 ×10⁻⁶ cm/s |
| COc1cc(Nc2nc3n(n2)C(C2CC2)CC(=O)N3Cc2cc(F)ccc2F)ccc1-n1cnc(C)c1 (centres undefined) |  | < 1 | 88 | 15.8 | 33000 | Kp [5]: 0.11 |
| COc1cc(Nc2nc3n(n2)CCC(=O)N3Cc2ccccc2C)ccc1-c1ccnnc1 | 7.5 | < 1 | 56 | 79.4 | 33000 | Papp A→B [4]: 18 ×10⁻⁶ cm/s; Kp [5]: 0.11; Papp B→A [6]: 22 ×10⁻⁶ cm/s |
| COc1cc(Nc2nc3n(n2)C(C)CCN3CC(C)(C)O)ccc1-n1cnc(C)c1 (centres undefined) | 6.5 | 330 (≈ 136 µg/mL) | 33 | 316 | 33000 |  |
| N#CCc1ccc(Nc2nc3n(n2)CCCC3c2ccc(F)cc2)cc1 (centres undefined) | 5.8 |  |  |  |  |  |
| COc1cc(Nc2nc3n(n2)C(c2ccccc2)CCN3CC(C)(C)O)ccc1-n1cnc(C)c1 (centres undefined) |  | 230 (≈ 109 µg/mL) | 39 | 25.1 | 26000 | Papp A→B [4]: 35 ×10⁻⁶ cm/s; Kp [5]: 0.01; Papp B→A [6]: 19 ×10⁻⁶ cm/s |
